Experimental data from patent US20140113904A1, “TREATMENT OF CANCER WITH TOR KINASE INHIBITORS” (SIGNAL PHARMACEUTICALS, LLC, priority 2012, published 2014).

Test system: pS6
Assay: pS6 in PC3 tumors, MSD (Compound 1)
Type: in vivo, SCID mice
Details: for pS6 inhibition in tumor: through 24 hours
Protocol: The plasma and tumor samples were collected at various time points following compound administration as described.
Mice were monitored daily for clinical signs and body weight changes. At the end of the study, mice were euthanized and plasma and tumor samples were collected for PK/PD determination. PD markers, pS6 and pAkt, were measured using MSD technology.
After the last measurement, the experiment was terminated by taking the plasma and tumor samples for PK and PD measurements. Compound concentrations in plasma and tumor were determined by LC-MS/MS. PD markers, pS6 and pAkt, were measured using MSD technology.
At predetermined time points following dosing, mice were euthanized and plasma and tumor samples were collected for PK/PD determination. Compound concentrations in plasma and tumor were determined by LC-MS/MS. PD markers, pS6 and pAkt, were measured using Mesoscale technology.
For Mesoscale discovery assays, tissue samples were homogenized in lysis buffer containing protease and phosphatase inhibitors and centrifuged for 10 minutes at 1200 rpm at 4° C. Supernatants were sonicated for 1 minute at 4° C., aliquoted and stored at −80° C. Protein concentrations in samples were determined using BCA Protein Assay Reagent Kit (Thermo Scientific). Meso Scale Discovery kits and protocol for measuring the pS6 and pAkt/Total Akt kits were used. MSD 96-well plates spotted with pS6, pAkt/total Akt were blocked with blocking solution for 5 minutes followed by a wash with wash buffer. […] of tumor lysates were added to each well and incubated for 2 hours followed by a 4× wash with a wash buffer. Detection antibody was added to each well and incubated in the dark for 1 hour at 4° C. The plates were then washed and bound antigen was read using an MSD SECTOR™ instrument.

Q: How did the “inhibition of pS6” value (0.3 mg/kg single dose, 0.5 h, data not shown) turn out when `CO[C@H]1CC[C@H](N2C(=O)CNc3ncc(-c4ccc(C(C)(C)O)nc4)nc32)CC1` [Compound 1, 7-(6-(2-hydroxypropan-2-yl)pyridin-3-yl)-1-((1r,4r)-4-methoxycyclohexyl)-3,4-dihydropyrazino-[2,3-b]pyrazin-2(1H)-one] was run?
A: 81%

Q: What about the pS6 inhibition (0.3 mg/kg single dose, up to 2 hours, data not shown) of the same compound?
A: Approximately 80%

Q: And the pS6 inhibition (1 mg/kg single dose, up to 4 hours)?
A: Approximately 80%

Q: And the “PD Marker Inhibition (%) pS6” value (1 mg/kg single oral dose, 0.5 h)?
A: 80.8%

Q: And the “PD Marker Inhibition (%) pS6” value (1 mg/kg single oral dose, 2 h)?
A: 82.8%

Q: And the “PD Marker Inhibition (%) pS6” value (1 mg/kg single oral dose, 4 h)?
A: 78.6%

Q: What about the “PD Marker Inhibition (%) pS6” value (1 mg/kg single oral dose, 6 h) of the same compound?
A: 53.1%

Q: And the “PD Marker Inhibition (%) pS6” value (1 mg/kg single oral dose, 10 h)?
A: 14.4%

Q: And the “PD Marker Inhibition (%) pS6” value (1 mg/kg single oral dose, 24 h)?
A: 20.6%

Q: And the “inhibition of pS6 in tumors” value (10 mg/kg QD 5 days, 24 hours after the last dose)?
A: 22%

Q: And the “inhibition of pS6” value (10 mg/kg single dose, up to 8 hours)?
A: > 80%

Q: What about the “PD Marker Inhibition (%) pS6” value (10 mg/kg single oral dose, 1 h) of the same compound?
A: 79.5%

Q: And the “PD Marker Inhibition (%) pS6” value (10 mg/kg single oral dose, 3 h)?
A: 91.9%

Q: And the “PD Marker Inhibition (%) pS6” value (10 mg/kg single oral dose, 8 h)?
A: 91.2%

Q: What about the “PD Marker Inhibition (%) pS6” value (10 mg/kg single oral dose, 16 h) of the same compound?
A: 32.4%

Q: What about the “PD Marker Inhibition (%) pS6” value (10 mg/kg single oral dose, 24 h) of the same compound?
A: 32.7%

Q: What about the “PD Marker Inhibition (%) pS6” value (10 mg/kg single oral dose, 48 h) of the same compound?
A: 39.5%

Q: What about the “PD Marker Inhibition (%) pS6” value (10 mg/kg single oral dose, 72 h) of the same compound?
A: 47.9%

Q: What about the “inhibition of pS6 levels” value (25 mg/kg single dose, up to 24 hours) of the same compound?
A: > 80%

Q: And the “PD Marker Inhibition (%) pS6” value (25 mg/kg single oral dose, 1 h)?
A: 87.9%

Q: What about the “PD Marker Inhibition (%) pS6” value (25 mg/kg single oral dose, 3 h) of the same compound?
A: 95.1%

Q: And the “PD Marker Inhibition (%) pS6” value (25 mg/kg single oral dose, 8 h)?
A: 92.3%

Q: What about the “PD Marker Inhibition (%) pS6” value (25 mg/kg single oral dose, 16 h) of the same compound?
A: 92.1%

Q: And the “PD Marker Inhibition (%) pS6” value (25 mg/kg single oral dose, 24 h)?
A: 83.7%

Q: What about the “PD Marker Inhibition (%) pS6” value (25 mg/kg single oral dose, 48 h) of the same compound?
A: 47.2%

Q: And the “PD Marker Inhibition (%) pS6” value (25 mg/kg single oral dose, 72 h)?
A: 68.3%

Q: What about the “pS6 inhibition in tumor” value (30 mg/kg single oral dose) of the same compound?
A: 78%

Q: And the “pS6 inhibition in tumor” value (100 mg/kg single oral dose)?
A: 91%

Q: What about the “both PD markers (pS6, pAKT) in tumors” value (25 and 50 mg/kg QD, 24 hr timepoint, data not shown) of the same compound?
A: significantly inhibited
